One data set concerns the target T1, RXFP1 (Homo sapiens, UniProt Q9HBX9).
T1 construct: OVCAR5 cells expressing endogenous RXFP1; endogenous in cells; host or cells: OVCAR5 cells
T1 sequence (Q9HBX9 1-757): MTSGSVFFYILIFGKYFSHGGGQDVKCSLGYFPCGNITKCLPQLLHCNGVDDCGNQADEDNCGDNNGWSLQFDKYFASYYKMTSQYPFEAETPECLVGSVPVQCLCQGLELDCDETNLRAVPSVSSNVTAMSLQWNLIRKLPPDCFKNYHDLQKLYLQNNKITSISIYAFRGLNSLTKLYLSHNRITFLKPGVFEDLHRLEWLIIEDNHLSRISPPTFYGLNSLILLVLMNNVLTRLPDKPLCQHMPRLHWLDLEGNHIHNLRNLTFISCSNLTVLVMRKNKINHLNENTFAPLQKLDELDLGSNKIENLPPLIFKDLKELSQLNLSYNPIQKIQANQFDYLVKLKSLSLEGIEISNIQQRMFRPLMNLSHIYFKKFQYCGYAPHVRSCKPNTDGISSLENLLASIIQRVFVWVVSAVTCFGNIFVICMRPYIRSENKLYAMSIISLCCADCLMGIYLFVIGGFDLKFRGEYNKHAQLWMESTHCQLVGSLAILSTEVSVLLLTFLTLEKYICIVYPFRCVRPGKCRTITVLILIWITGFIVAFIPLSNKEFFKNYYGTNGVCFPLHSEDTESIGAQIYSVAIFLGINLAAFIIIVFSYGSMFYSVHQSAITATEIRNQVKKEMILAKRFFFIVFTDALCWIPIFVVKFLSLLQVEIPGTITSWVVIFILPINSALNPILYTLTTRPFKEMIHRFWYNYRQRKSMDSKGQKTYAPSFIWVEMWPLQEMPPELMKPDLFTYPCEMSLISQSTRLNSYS
Nature of the data set: OVCAR5 cAMP assay (HTRF), RXFP1 agonist activity. Format: cell-based. The note with it: for EC50: OVCAR5 cells, cAMP HTRF, read-out: EC50 (nM), OVCAR 5 cells (cAMP); for Emax: OVCAR-5, maximal cAMP relative to H2-relaxin maximum (100%), read-out: EMax, OVCAR 5 cells (cAMP). The essentials:
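OVCAR5 cells (endogenous RXFP1) pretreated 40 min at 37° C with 1 mM IBMX, then exposed to peptides in serum-free medium for 30 min at 37° C. Lysate cAMP read by HTRF; EC50 from variable-slope sigmoidal fit; Emax as % of H2-relaxin maximal cAMP in same run.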
Background: cAMP levels reflect the balance of adenylyl cyclase and phosphodiesterase activity.

The nature of data set [1]: Pharmacokinetic (PK) determination after i.v. or s.c. administration to rats. The class given is in vivo, Sprague Dawley rats. As to conditions: Rat PK; for half-life / Cmax / Tmax / bioavailability: plasma; for half-life: read-out: T½ (converted); for Cmax / Tmax: sc, 3 mg/kg s.c.; for bioavailability: subcutaneous, 3 mg/kg s.c. vs 1 mg/kg i.v., dose-corrected AUC ratio. The protocol:
Prior to the testing of a peptide batch, its purity (HPLC-UV) was determined. Dose was corrected for presence of salts, solvent and purity.
Sprague Dawley rats were dosed with study peptide at a dose of 1 mg/kg intravenously (i.v.) or 3 mg/kg subcutaneously (s.c.) as a solution in PBS (0.2 mg/ml and 0.6 mg/ml respectively).
Plasma samples were analyzed after protein precipitation via liquid chromatography mass spectrometry (LC/MS).
PK parameters and half-life were calculated using Phoenix 64 (WinNonlin 6.4)-Pharsight (Certara™) (non-compartment model). Values below the limit of quantification (BLQ) were replaced by zero for subsequent calculations and PK analysis.
T½: in-vivo half life, time required for test compound plasma concentration to be divided by two during the PK experiment.
C0: Extrapolated test compound plasma concentration at t=0 time point (i.v. route).
Cmax: maximal test compound plasma concentration at the indicated time point (s.c. route).
Tmax: Time point where Cmax is attained.
F %: s.c. vs i.v. bioavailability, dose-corrected area under curve (AUC) s.c. route divided by AUC i.v.

Setting [2] is: Sprague Dawley, iv, 1 mg/kg i.v., extrapolated plasma concentration at t=0, read-out: C0.
[3] abbreviates: Sprague Dawley, iv, 1 mg/kg i.v.

Where two headings read alike, the source gives them in different places. *1 amine or outer side, *2 acyl side, *3 side chain or, on linkers, in order; H or OH if unused. Where a SMILES comes first, the peptide text is derived from it. Side-chain parts run from the residue outwards. [ ]: non-standard residue; d: D form. The star is where a group is joined. X11 = CCCCCCCCCCCCCCCC(=O)N[C@@H](CCC(=O)NCCCC[C@H](NC(=O)CC[C@H](NC(=O)CC[C@H](NC(=O)CC[C@H](NC(=O)CCC(=O)NCCCOCCOCCOCCCNC(=O)CCC(=O)NCCCOCCOCCOCCCNC(=O)CCC(=O)NCCCOCCOCCOCCCN*)C(=O)O)C(=O)O)C(=O)O)C(N)=O)C(=O)O; γGlu = O=C(O)[C@H](CCC(=O)[*:2])N[*:1]; Stearoyl = CCCCCCCCCCCCCCCCCC(=O)*; Palmitoyl = CCCCCCCCCCCCCCCC(=O)*; αMeK = C[C@](N)(CCCCN)C(=O)O; Nle = CCCC[C@H](N)C(=O)O; AEEA = NCCOCCOCC(=O)O; Aib = CC(C)(N)C(=O)O

What is called EC50 is the midpoint of the concentration-response curve. Broadly, the Emax is the maximal effect, on the per cent scale that the assay sets. The Cmax is the maximum level reached in the sampled fluid or tissue. In general, Tmax refers to the time at which the peak concentration occurs. As a reminder, the bioavailability is dose-corrected exposure relative to a reference, in per cent. As for `CCCCCCCCCCCCCCCCCC(=O)N[C@@H](CCC(=O)N[C@@H](CCC(=O)N[C@@H](CCC(=O)N[C@@H](CCC(=O)NCCCC[C@H](NC(=O)COCCOCCNC(=O)COCCOCCNC(=O)COCCOCCNC(=O)[C@H](CCCCNC(C)=O)NC(=O)[C@H](CCCCN)NC(=O)[C@H](CCCNC(=N)N)NC(=O)[C@](C)(CCCCN)NC(=O)[C@H](CO)NC(=O)[C@H](Cc1c[nH]c2ccccc12)NC(=O)[C@@H](NC(=O)[C@H](CO)NC(=O)[C@H](CCCC)NC(=O)CNC(=O)[C@H](CCC(=O)O)NC(=O)C(C)(C)NC(=O)C(C)(C)NC(=O)[C@@H](NC(=O)[C@H](CCCCNC(C)=O)NC(=O)[C@H](C)NC(=O)[C@H](CCCNC(=N)N)NC(=O)[C@@H](NC(=O)[C@H](CCCCN)NC(=O)[C@H](CCC(=O)O)NC(=O)[C@H](CCCNC(=N)N)NC(=O)CNC(=O)[C@H](CCC(=O)O)NC(=O)[C@H](CC(C)C)NC(C)=O)C(C)C)[C@@H](C)CC)[C@@H](C)O)C(N)=O)C(=O)O)C(=O)O)C(=O)O)C(=O)O` [compound 16] (Ac-LEGREKVRAK(Ac)I[Aib][Aib]EG[Nle]STWS[αMeK]RKK(Ac)[AEEA][AEEA][AEEA]K([γGlu-γGlu-γGlu-γGlu-Stearoyl])-NH2), at RXFP1, the EC50 worked out at 0.02 nM and the Emax came out at 87%. For the same compound, in data set [1] (setting [2]), the C0 was 2650 nM. The half-life in data set [1] (setting [3]) was 203 min. Further, in data set [1] (Sprague Dawley), the highest level (Cmax) was 1880 nM, the time to peak (Tmax) turned out to be 8 h and the bioavailability turned out to be 53%.

`CCCCCCCCCCCCCCCC(=O)N[C@@H](CCC(=O)N[C@@H](CCC(=O)N[C@@H](CCC(=O)N[C@@H](CCC(=O)NCCCC[C@H](NC(=O)COCCOCCNC(=O)COCCOCCNC(=O)COCCOCCNC(=O)[C@H](CCCCNC(C)=O)NC(=O)[C@H](CCCCN)NC(=O)[C@H](CCCNC(=N)N)NC(=O)[C@](C)(CCCCN)NC(=O)[C@H](CO)NC(=O)[C@H](Cc1c[nH]c2ccccc12)NC(=O)[C@@H](NC(=O)[C@H](CO)NC(=O)[C@H](CCCC)NC(=O)CNC(=O)[C@H](CCC(=O)O)NC(=O)C(C)(C)NC(=O)C(C)(C)NC(=O)[C@@H](NC(=O)[C@H](CCCCNC(C)=O)NC(=O)[C@H](C)NC(=O)[C@H](CCCNC(=N)N)NC(=O)[C@@H](NC(=O)[C@H](CCCCN)NC(=O)[C@H](CCC(=O)O)NC(=O)[C@H](CCCNC(=N)N)NC(=O)CNC(=O)[C@H](CCC(=O)O)NC(=O)[C@H](CC(C)C)NC(C)=O)C(C)C)[C@@H](C)CC)[C@@H](C)O)C(N)=O)C(=O)O)C(=O)O)C(=O)O)C(=O)O` [compound 17] (Ac-LEGREKVRAK(Ac)I[Aib][Aib]EG[Nle]STWS[αMeK]RKK(Ac)[AEEA][AEEA][AEEA]K([γGlu-γGlu-γGlu-γGlu-Palmitoyl])-NH2): on RXFP1, the EC50 was determined as 0.17 nM and the maximal effect (Emax) was found to be 95%. The C0 in data set [1] (setting [2]) was 3500 nM. Further, the half-life in data set [1] (setting [3]) is 348 min. Further, in data set [1] (Sprague Dawley), the highest level (Cmax) was 2400 nM, the Tmax amounted to 8 h and the bioavailability turned out to be 73%.

Regarding `CCCCCCCCCCCCCCCC(=O)N[C@@H](CCC(=O)N[C@@H](CCC(=O)N[C@@H](CCC(=O)N[C@@H](CCC(=O)NCCOCCOCC(=O)NCCOCCOCC(=O)NCCOCCOCC(=O)NCCOCCOCC(=O)NCCCC[C@H](NC(=O)[C@H](CCCCNC(C)=O)NC(=O)[C@H](C)NC(=O)[C@H](CCCNC(=N)N)NC(=O)[C@](C)(CCCCN)NC(=O)[C@H](CO)NC(=O)[C@H](Cc1ccccc1)NC(=O)[C@@H](NC(=O)[C@H](CO)NC(=O)[C@H](CCC(N)=O)NC(=O)CNC(=O)[C@H](CCC(=O)O)NC(=O)C(C)(C)NC(=O)C(C)(C)NC(=O)[C@@H](NC(=O)[C@H](CCCCNC(C)=O)NC(=O)[C@H](C)NC(=O)[C@H](CCCNC(=N)N)NC(=O)[C@@H](NC(=O)[C@H](CCCCN)NC(=O)[C@H](CCC(=O)O)NC(=O)[C@H](CCCNC(=N)N)NC(=O)CNC(=O)[C@H](CCC(=O)O)NC(=O)[C@H](CC(C)C)NC(C)=O)C(C)C)[C@@H](C)CC)[C@@H](C)O)C(N)=O)C(=O)O)C(=O)O)C(=O)O)C(=O)O` [compound 191] (Ac-LEGREKVRAK(Ac)I[Aib][Aib]EGQSTFS[αMeK]RAK(Ac)K([AEEA-AEEA-AEEA-AEEA-γGlu-γGlu-γGlu-γGlu-Palmitoyl])-NH2), on RXFP1, the EC50 was determined as 0.17 nM and the Emax was determined as 93%.

With `CCCCCCCCCCCCCCCC(=O)N[C@@H](CCC(=O)N[C@@H](CCC(=O)N[C@@H](CCC(=O)NCCCC[C@H](NC(=O)COCCOCCNC(=O)COCCOCCNC(=O)COCCOCCNC(=O)COCCOCCNC(=O)[C@H](CCCCNC(C)=O)NC(=O)[C@H](C)NC(=O)[C@H](CCCNC(=N)N)NC(=O)[C@](C)(CCCCN)NC(=O)[C@H](CO)NC(=O)[C@H](Cc1ccccc1)NC(=O)[C@@H](NC(=O)[C@H](CO)NC(=O)[C@H](CCCC)NC(=O)CNC(=O)[C@H](CCC(=O)O)NC(=O)C(C)(C)NC(=O)C(C)(C)NC(=O)[C@@H](NC(=O)[C@H](CCCCNC(C)=O)NC(=O)[C@H](C)NC(=O)[C@H](CCCNC(=N)N)NC(=O)[C@@H](NC(=O)[C@H](CCCCN)NC(=O)[C@H](CCC(=O)O)NC(=O)[C@H](CCCNC(=N)N)NC(=O)CNC(=O)[C@H](CCC(=O)O)NC(=O)[C@H](CC(C)C)NC(C)=O)C(C)C)[C@@H](C)CC)[C@@H](C)O)C(N)=O)C(=O)O)C(=O)O)C(=O)O` [compound 192] (Ac-LEGREKVRAK(Ac)I[Aib][Aib]EG[Nle]STFS[αMeK]RAK(Ac)[AEEA][AEEA][AEEA][AEEA]K([γGlu-γGlu-γGlu-Palmitoyl])-NH2), the Emax at RXFP1 came to 91%.

On to `CCCCCCCCCCCCCCCC(=O)N[C@@H](CCC(=O)NCCCC[C@H](NC(=O)CC[C@H](NC(=O)CC[C@H](NC(=O)CC[C@H](NC(=O)CCC(=O)NCCCOCCOCCOCCCNC(=O)CCC(=O)NCCCOCCOCCOCCCNC(=O)CCC(=O)NCCCOCCOCCOCCCNC(=O)[C@H](CCCCNC(C)=O)NC(=O)[C@H](C)NC(=O)[C@H](CCCNC(=N)N)NC(=O)[C@](C)(CCCCN)NC(=O)[C@H](CO)NC(=O)[C@H](Cc1ccccc1)NC(=O)[C@@H](NC(=O)[C@H](CO)NC(=O)[C@H](CCCC)NC(=O)CNC(=O)[C@H](CCC(=O)O)NC(=O)C(C)(C)NC(=O)C(C)(C)NC(=O)[C@@H](NC(=O)[C@H](CCCCNC(C)=O)NC(=O)[C@H](C)NC(=O)[C@H](CCCNC(=N)N)NC(=O)[C@@H](NC(=O)[C@H](CCCCN)NC(=O)[C@H](CCC(=O)O)NC(=O)[C@H](CCCNC(=N)N)NC(=O)CNC(=O)[C@H](CCC(=O)O)NC(=O)[C@H](CC(C)C)NC(C)=O)C(C)C)[C@@H](C)CC)[C@@H](C)O)C(=O)O)C(=O)O)C(=O)O)C(N)=O)C(=O)O` [compound 193] (Ac-LEGREKVRAK(Ac)I[Aib][Aib]EG[Nle]STFS[αMeK]RAK(Ac)-X11), for which, on RXFP1, the EC50 stood at 0.2 nM and the Emax is 100%.

In the case of “H2-Relaxin: 6-kDa peptidic hormone of 53 amino acids; chain A (SEQ ID NO: 194) and chain B (SEQ ID NO: 195) cross-linked by disulfide bonds”, in data set [1] (1 mg/kg i.v.), the “T½ (in-vivo half life)” value was 27.6 min. In data set [1] (1 mg/kg i.v., read-out: C0 (extrapolated plasma concentration at t=0)), the C0 is 870 nM.
